Experimental data taken from patent US5759996A, “Peptides useful for altering αv β3 -mediated binding” (priority 1995, dated 1998).
Where a SMILES comes first, the peptide text is derived from it. Bridges are numbered along the chain shown (N, C = ends). [ ]: non-standard residue; d: D form. Tic = O=C(O)[C@@H]1Cc2ccccc2CN1; Pen = CC(C)(S)[C@H](N)C(=O)O; Mpa = O=C(O)CCS

Assays:
αv β3 integrin receptor = αv β3 integrin receptor (Homo sapiens, UniProt P05106+P06756); experiment: series of in vitro assays of Example II (potency and selectivity summary)
[1] = parathyroid hormone-induced hypercalcemia in mice; assay type: in vivo; settings: parathyroidectomized mice, 4 hr infusion, various doses
Description: Parathyroid hormone (PTH) activates osteoclasts, which are involved in bone resorption. Associated with the increased osteoclast activity is an increase in serum calcium. The PTH-induced hypercalcemia assay measures the level of serum calcium, which is an indication of bone resorption in a subject (Fischer et al., Endocrinology 132:1411-1413 (1993), which is incorporated herein by reference).
Swiss-Webster mice, which had been parathyroidectomized two weeks prior to beginning the assay, were obtained from Taconic Lab Animals and Services (Germantown N.Y.). Femoral vein catheters (PE-50 fused with PE10 polyethylene tubing; Becton Dickinson; Parsippany, N.J.) were installed in the mice, flushed and locked with heparinized saline (1:10), sutured to adjacent muscle and internalized within the inguinal space of the incision before closing the incision with wound clips. […]
The experiment was initiated by feeding the mice a calcium-deficient diet overnight, then injecting the mice the following morning with a bolus of 0.2 mg PTH/kg (hPTH 1-34; Bachem; Torrance Calif.), intravenously. […] Various doses of a peptide or vehicle were infused into an animal for 4 hr, then ionized serum calcium again was measured. […] Serum calcium measurements were expressed as the difference between the value 30 min before the PTH pulse and 4 hr after peptide infusion was started. […]

[2] = biological target: T1, purified human α5 β1 (FnR) (Homo sapiens, UniProt P05556+P08648); experiment: α5 β1 ELISA (competitive); assay type: binding
T1 construct: Fibronectin receptor (FnR) was purified from 100 mM octyl-glucopyranoside-extracted human placenta; from tissue; host or cells: human placenta
Experimental: Peptide binding to purified human α5 β1 (FnR) also was determined using a competitive ELISA. In these assays, Fn was immobilized to the wells and the binding of solubilized FnR in the presence of various concentrations of a peptide analogue was determined using a mouse monoclonal antibody to human β1 (clone P4C10; Gibco) and specific binding was visualized using a second antibody.
Microtiter wells were coated at RT by adding 100 μl of 2 μg/ml human Fn in TBS and incubating the plates overnight at 4° C. Following incubation, the plates were washed 3× with TBS/"TWEEN 20" (polyoxyethylenesorbitan monolaurate). RGD peptides were diluted in TBS containing 20 mM OG and 2 mM MnCl2 and 50 μl was added to wells at 10-fold serial dilutions. FnR was diluted in the same buffer and 50 μl was added to each well.
The plates were incubated for 3 hr at RT and washed with 300 μl TBS/"TWEEN 20" (polyoxyethylenesorbitan monolaurate). Bound receptor was incubated with 100 μl of the monoclonal anti-β1 antibody for 2 hr, then washed 3× with TBS/"TWEEN 20" (polyoxyethylenesorbitan monolaurate). […] The amount of bound second antibody was determined as described above.
The IC50 values for various RGD peptides were calculated by determining the concentration of a peptide that inhibited binding of Vn to αv β5 or αv β3 or of Fn to α5 β1, by 50%. […]

[3] = rabbit, in vivo; cited from earlier work
[4] = half-life of peptide in serum; settings: in vivo
Description: Increased stability of a disulfide bonded peptide of the invention also can be conferred by incorporating a hydrophobic amino acid residue such as phenylalanine at position X1 or X8 or both X1 and X8 in an RGDNTic (SEQ ID NO: 31) or RGDDV (SEQ ID NO: 1) pharmacophore as disclosed herein. The presence of such a residue can stabilize the disulfide bond against enzymatic degradation (see Bauer et al., Life Sciences 31:1133-1140 (1982)). […] In addition, the half-life of a peptide in a subject can be determined, for example, by high performance liquid chromatography (HPLC) of serum samples collected from the subject at various times following administration of the peptide. One skilled in the art would know how to select appropriate elution buffers for HPLC based on the physico-chemical properties of a particular peptide.

[5] = cited from earlier work
osteoclasts = settings: cited from earlier work

Compound: CC(=O)N[C@H]1CSSC[C@@H](C(N)=O)NC(=O)[C@@H]2Cc3ccccc3CN2C(=O)[C@H](CO)NC(=O)[C@H](CC(=O)O)NC(=O)CNC(=O)[C@H](CCCNC(=N)N)NC1=O [compound 812, Ac-CRGDS(Tic)C-NH2] (Ac-CRGDS[Tic]C-NH2; disulfide 1-7)
- activity (FIG. 2 assays) (αv β3 integrin receptor; minimal-element peptides): demonstrate activity
- potency (active at relatively low concentration) (αv β3 integrin receptor; summary of assays): particularly potent

Compound: CC(=O)N[C@@H]1C(=O)N[C@@H](Cc2ccccc2)C(=O)N[C@@H](C)C(=O)N[C@@H](CCCNC(=N)N)C(=O)NCC(=O)N[C@@H](CC(=O)O)C(=O)N[C@@H](CC(N)=O)C(=O)N2CCC[C@H]2C(=O)N[C@H](C(N)=O)CSSC1(C)C [peptide 214] (Ac-[Pen]FARGDNPC-NH2; disulfide 1-9)
- potency (active at relatively low concentration) (αv β3 integrin receptor; summary of assays): particularly potent

Compound: CC(C)[C@@H]1NC(=O)[C@H](CC(=O)O)NC(=O)[C@H](CC(=O)O)NC(=O)CNC(=O)[C@H](CCCNC(=N)N)NC(=O)CCSSC[C@@H](C(N)=O)NC1=O [compound 191] ([Mpa]RGDDVC-NH2; disulfide 1-7)
- PTH-induced rise in serum ionized calcium [1]: decreased the PTH-induced rise in serum ionized calcium in a dose responsive manner

Compound: C[C@@H]1NC(=O)[C@H](CCCNC(=N)N)NC(=O)CNC(=O)CC[C@@H](C(N)=O)NC(=O)[C@@H]2CCCN2C(=O)[C@H](CC(N)=O)NC(=O)[C@H](CC(=O)O)NC(=O)CNC(=O)[C@H](CCCNC(=N)N)NC1=O [compound 390] (GRARGDNPE-NH2; lactam N-9)
- receptor selectivity α5 β1 versus αv β5 [2]: more selective toward α5 β1 than toward αv β5

Compound: G(Pen)GRGDSPCA
- neointimal hyperplasia [3]: inhibit neointimal hyperplasia

Compound: CC(=O)N[C@H]1CSSC(C)(C)[C@@H](C(N)=O)NC(=O)[C@@H]2CCCN2C(=O)[C@H](CC(N)=O)NC(=O)[C@H](CC(=O)O)NC(=O)CNC(=O)[C@H](CCCNC(=N)N)NC1=O [compound 228] (Ac-CRGDNP[Pen]-NH2; disulfide 1-7)
- receptor selectivity (summary) (αv β3 integrin receptor; summary of assays): particularly receptor selective

Compound: CC(=O)N[C@@H](Cc1ccccc1)C(=O)N[C@H]1CSSC[C@@H](C(N)=O)NC(=O)[C@H](Cc2ccccc2)NC(=O)[C@H]([C@@H](C)O)NC(=O)[C@H](CC(=O)O)NC(=O)CNC(=O)[C@H](CCCNC(=N)N)NC1=O [peptide 220] (Ac-FCRGDTFC-NH2; disulfide 2-8)
- half-life in serum [4]: relatively long half-life in serum

Compound: Echistatin
- bone resorption in vivo [5]: inhibits bone resorption
- binding to osteoclasts (osteoclasts): binds to osteoclasts in a nonselective manner
- bone resorption in vitro (osteoclasts; in vitro): inhibits bone resorption in vitro
